Source: patent publication US5672715A, “Herbicidal substituted 3-aryl-pyrazoles” (Monsanto Company, priority 1995, dated 1997)

Experiments:
Type in all cases: in vivo
Barnyardgrass [1] = assay: pre-emergence herbicide test; conditions: Echinochloa crus-galli, pre-emergence, 0.25 lb/A; read-out: % plant inhibition
Method in brief: (§1)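 Read-out is percent inhibition at approximately 14 days after seeding and treating. Seeds sat on compacted topsoil beneath a cover layer containing compound in acetone or water, with greenhouse bottom-watering.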

Bedstraw Catchweed [2] = assay: pre-emergence herbicide test; conditions: Galium aparine, pre-emergence, 0.25 lb/A; read-out: % plant inhibition
Method in brief: as §1

Birdseye Speedwell [3] = assay: pre-emergence herbicide test; conditions: pre-emergence, 0.25 lb/A; read-out: % plant inhibition
Method in brief: as §1

Blackgrass [4] = assay: pre-emergence herbicide test; conditions: Alopecurus myosuroides, pre-emergence, 0.25 lb/A; read-out: % plant inhibition
Method in brief: as §1

Cocklebur [5] = assay: pre-emergence herbicide test; conditions: Xanthium strumarium, pre-emergence, 0.25 lb/A; read-out: % plant inhibition
Method in brief: as §1

Common Chickweed [6] = assay: pre-emergence herbicide test; conditions: pre-emergence, 0.25 lb/A; read-out: % plant inhibition
Method in brief: as §1

Corn [7] = assay: pre-emergence herbicide test; conditions: Zea mays, pre-emergence, 0.25 lb/A; read-out: % plant inhibition
Method in brief: as §1

Downy Brome [8] = assay: pre-emergence herbicide test; conditions: Bromus tectorum, pre-emergence, 0.25 lb/A; read-out: % plant inhibition
Method in brief: as §1

Giant Foxtail [9] = assay: pre-emergence herbicide test; conditions: Setaria faberi, pre-emergence, 0.25 lb/A; read-out: % plant inhibition
Method in brief: as §1

Green Foxtail [10] = assay: pre-emergence herbicide test; conditions: Setaria viridis, pre-emergence; 0.25 lb/A; read-out: % plant inhibition
Method in brief: as §1

Morning Glory [11] = assay: pre-emergence herbicide test; conditions: Ipomoea, pre-emergence, 0.25 lb/A; read-out: % plant inhibition
Method in brief: as §1

Rape [12] = assay: pre-emergence herbicide test; conditions: pre-emergence, 0.25 lb/A; read-out: % plant inhibition
Method in brief: as §1

Seedling Johnsongrass [13] = assay: pre-emergence herbicide test; conditions: Sorghum halepense, pre-emergence, 0.25 lb/A; read-out: % plant inhibition
Method in brief: as §1

Soybean [14] = assay: pre-emergence herbicide test; conditions: Glycine max, pre-emergence, 0.25 lb/A; read-out: % plant inhibition
Method in brief: as §1

Velvetleaf [15] = assay: pre-emergence herbicide test; conditions: Abutilon theophrasti, pre-emergence, 0.25 lb/A; read-out: % plant inhibition
Method in brief: as §1

Wheat [16] = assay: pre-emergence herbicide test; conditions: Triticum aestivum, pre-emergence, 0.25 lb/A; read-out: % plant inhibition
Method in brief: as §1

Wild Oats [17] = assay: pre-emergence herbicide test; conditions: Avena fatua, pre-emergence, 0.25 lb/A; read-out: % plant inhibition
Method in brief: as §1

Barnyardgrass [18] = assay: post-emergence herbicide test; conditions: Echinochloa crus-galli, post-emergence, 0.25 lb/A; read-out: % plant inhibition
Method in brief: (§2)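 Two- to three-week-old plants, greenhouse-grown in compacted topsoil, received candidate chemical by atomizer spray at 1870 L/Ha. Scored as percent inhibition.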

Bedstraw Catchweed [19] = assay: post-emergence herbicide test; conditions: Galium aparine, post-emergence, 0.25 lb/A; read-out: % plant inhibition
Method in brief: as §2

Birdseye Speedwell [20] = assay: post-emergence herbicide test; conditions: post-emergence, 0.25 lb/A; read-out: % plant inhibition
Method in brief: as §2

Blackgrass [21] = assay: post-emergence herbicide test; conditions: Alopecurus myosuroides, post-emergence, 0.25 lb/A; read-out: % plant inhibition
Method in brief: as §2

Cocklebur [22] = assay: post-emergence herbicide test; conditions: Xanthium strumarium, post-emergence, 0.25 lb/A; read-out: % plant inhibition
Method in brief: as §2

Common Chickweed [23] = assay: post-emergence herbicide test; conditions: post-emergence, 0.25 lb/A; read-out: % plant inhibition
Method in brief: as §2

Corn [24] = assay: post-emergence herbicide test; conditions: Zea mays, post-emergence, 0.25 lb/A; read-out: % plant inhibition
Method in brief: as §2

Downy Brome [25] = assay: post-emergence herbicide test; conditions: Bromus tectorum, post-emergence, 0.25 lb/A; read-out: % plant inhibition
Method in brief: as §2

Giant Foxtail [26] = assay: post-emergence herbicide test; conditions: Setaria faberi, post-emergence, 0.25 lb/A; read-out: % plant inhibition
Method in brief: as §2

Green Foxtail [27] = assay: post-emergence herbicide test; conditions: Setaria viridis, post-emergence, 0.25 lb/A; read-out: % plant inhibition
Method in brief: as §2

Morning Glory [28] = assay: post-emergence herbicide test; conditions: Ipomoea, post-emergence, 0.25 lb/A; read-out: % plant inhibition
Method in brief: as §2

Rape [29] = assay: post-emergence herbicide test; conditions: post-emergence, 0.25 lb/A; read-out: % plant inhibition
Method in brief: as §2

Seedling Johnsongrass [30] = assay: post-emergence herbicide test; conditions: Sorghum halepense, post-emergence, 0.25 lb/A; read-out: % plant inhibition
Method in brief: as §2

Soybean [31] = assay: post-emergence herbicide test; conditions: Glycine max, post-emergence, 0.25 lb/A; read-out: % plant inhibition
Method in brief: as §2

Velvetleaf [32] = assay: post-emergence herbicide test; conditions: Abutilon theophrasti, post-emergence, 0.25 lb/A; read-out: % plant inhibition
Method in brief: as §2

Wheat [33] = assay: post-emergence herbicide test; conditions: Triticum aestivum, post-emergence, 0.25 lb/A; read-out: % plant inhibition
Method in brief: as §2

Wild Oats [34] = assay: post-emergence herbicide test; conditions: Avena fatua, post-emergence, 0.25 lb/A; read-out: % plant inhibition
Method in brief: as §2

| SMILES | inhibition at 280.212 g/ha (Barnyardgrass [1]) | inhibition at 280.212 g/ha (Bedstraw Catchweed [2]) | inhibition at 280.212 g/ha (Birdseye Speedwell [3]) | inhibition at 280.212 g/ha (Blackgrass [4]) | inhibition at 280.212 g/ha (Cocklebur [5]) | inhibition at 280.212 g/ha (Common Chickweed [6]) | inhibition at 280.212 g/ha (Corn [7]) | inhibition at 280.212 g/ha (Downy Brome [8]) | inhibition at 280.212 g/ha (Giant Foxtail [9]) | inhibition at 280.212 g/ha (Green Foxtail [10]) | inhibition at 280.212 g/ha (Morning Glory [11]) | inhibition at 280.212 g/ha (Rape [12]) | inhibition at 280.212 g/ha (Seedling Johnsongrass [13]) | inhibition at 280.212 g/ha (Soybean [14]) | inhibition at 280.212 g/ha (Velvetleaf [15]) | inhibition at 280.212 g/ha (Wheat [16]) | inhibition at 280.212 g/ha (Wild Oats [17]) | inhibition at 280.212 g/ha (Barnyardgrass [18]) | inhibition at 280.212 g/ha (Bedstraw Catchweed [19]) | inhibition at 280.212 g/ha (Birdseye Speedwell [20]) | further results |
| --- | --- | --- | --- | --- | --- | --- | --- | --- | --- | --- | --- | --- | --- | --- | --- | --- | --- | --- | --- | --- | --- |
| CCOC(=O)COC(=O)c1cc(-c2nn(C)c(C(F)(F)F)c2C)c(F)cc1Cl [Compound 17] | 0% | 100% | 100% | 20% | 10% | 100% | 0% | 30% | 40% | 35% | 50% | 90% | 5% | 5% | 50% | 0% | 15% | 70% | 95% | 98% | inhibition at 280.212 g/ha (Blackgrass [21]): 15%; inhibition at 280.212 g/ha (Cocklebur [22]): 95%; inhibition at 280.212 g/ha (Common Chickweed [23]): 90%; inhibition at 280.212 g/ha (Corn [24]): 10%; inhibition at 280.212 g/ha (Downy Brome [25]): 30%; inhibition at 280.212 g/ha (Giant Foxtail [26]): 45%; inhibition at 280.212 g/ha (Green Foxtail [27]): 20%; inhibition at 280.212 g/ha (Morning Glory [28]): 90%; inhibition at 280.212 g/ha (Rape [29]): 20%; inhibition at 280.212 g/ha (Seedling Johnsongrass [30]): 65%; inhibition at 280.212 g/ha (Soybean [31]): 30%; inhibition at 280.212 g/ha (Velvetleaf [32]): 99%; inhibition at 280.212 g/ha (Wheat [33]): 15%; inhibition at 280.212 g/ha (Wild Oats [34]): 20% |
| Cc1c(-c2cc(C(N)=O)c(Cl)cc2F)nn(C)c1C(F)(F)F [Compound 21] | 90% | 90% | 100% | 95% | 20% | 98% | 16% | 35% | 45% | 100% | 20% | 90% | 85% | 15% | 25% | 5% | 60% | 25% | 65% | 50% | inhibition at 280.212 g/ha (Blackgrass [21]): 10%; inhibition at 280.212 g/ha (Cocklebur [22]): 65%; inhibition at 280.212 g/ha (Common Chickweed [23]): 30%; inhibition at 280.212 g/ha (Corn [24]): 10%; inhibition at 280.212 g/ha (Downy Brome [25]): 25%; inhibition at 280.212 g/ha (Giant Foxtail [26]): 35%; inhibition at 280.212 g/ha (Green Foxtail [27]): 25%; inhibition at 280.212 g/ha (Morning Glory [28]): 90%; inhibition at 280.212 g/ha (Rape [29]): 20%; inhibition at 280.212 g/ha (Seedling Johnsongrass [30]): 35%; inhibition at 280.212 g/ha (Soybean [31]): 35%; inhibition at 280.212 g/ha (Velvetleaf [32]): 90%; inhibition at 280.212 g/ha (Wheat [33]): 5%; inhibition at 280.212 g/ha (Wild Oats [34]): 20% |
| Cc1c(-c2cc(C(=O)NC(C)C)c(Cl)cc2F)nn(C)c1C(F)(F)F [Compound 22] | 95% | 100% | 100% | 85% | 25% | 100% | 5% | 40% | 98% | 100% | 5% | 90% | 97% | 25% | 40% | 6% | 85% | 30% | 45% | 40% | inhibition at 280.212 g/ha (Blackgrass [21]): 5%; inhibition at 280.212 g/ha (Cocklebur [22]): 65%; inhibition at 280.212 g/ha (Common Chickweed [23]): 40%; inhibition at 280.212 g/ha (Corn [24]): 5%; inhibition at 280.212 g/ha (Downy Brome [25]): 15%; inhibition at 280.212 g/ha (Giant Foxtail [26]): 75%; inhibition at 280.212 g/ha (Green Foxtail [27]): 20%; inhibition at 280.212 g/ha (Morning Glory [28]): 40%; inhibition at 280.212 g/ha (Rape [29]): 10%; inhibition at 280.212 g/ha (Seedling Johnsongrass [30]): 60%; inhibition at 280.212 g/ha (Soybean [31]): 50%; inhibition at 280.212 g/ha (Velvetleaf [32]): 90%; inhibition at 280.212 g/ha (Wheat [33]): 0%; inhibition at 280.212 g/ha (Wild Oats [34]): 10% |
